Measurements: patent US9399626B2, “2-thiopyrimidinones” (Pfizer Inc., priority 2011, dated 2016)
Where a name gives a salt, the structure may show the parent alone.

Biological target: T1, MPO (purified from human polynuclear leukocytes) (Homo sapiens, UniProt P05164)
T1 construct: purified from human polynuclear leukocytes; purchased Calbiochem/EMD Biosciences; host or cells: human polynuclear leukocytes (natural source)
Assay: MPO Amplex Red Activity Assay
Assay type: biochemical
Settings: Table 1, 2 μM H2O2, pH 7.4
Summary of the method: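 Human leukocyte MPO […] oxidises 30 μM Amplex Red with 2 μM H2O2 in 50 mM NaPi pH 7.4, 150 mM NaCl, 1 mM DTPA, 2% DMSO. Resorufin fluorescence (ex 530/em 580 nm) read every 20 s, minus catalase background. kobs from the first 600 s, corrected for auto-inactivation, fit versus [I] for kinact/KI.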

T1 sequence (P05164 279-745 limits assumed): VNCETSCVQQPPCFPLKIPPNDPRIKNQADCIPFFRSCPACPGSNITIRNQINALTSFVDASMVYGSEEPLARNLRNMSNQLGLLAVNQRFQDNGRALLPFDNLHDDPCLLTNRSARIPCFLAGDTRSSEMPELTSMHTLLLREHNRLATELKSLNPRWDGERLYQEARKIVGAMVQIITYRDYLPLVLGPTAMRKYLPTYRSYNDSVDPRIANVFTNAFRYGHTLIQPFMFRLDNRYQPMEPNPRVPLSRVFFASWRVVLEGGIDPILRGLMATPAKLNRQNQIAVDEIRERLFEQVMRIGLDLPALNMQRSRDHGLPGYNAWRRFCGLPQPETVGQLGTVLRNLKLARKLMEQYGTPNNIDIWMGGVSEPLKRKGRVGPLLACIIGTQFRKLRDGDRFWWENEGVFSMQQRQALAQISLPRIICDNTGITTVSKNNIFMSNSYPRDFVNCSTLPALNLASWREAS
T1 sequence (P05164 165-273 limits assumed): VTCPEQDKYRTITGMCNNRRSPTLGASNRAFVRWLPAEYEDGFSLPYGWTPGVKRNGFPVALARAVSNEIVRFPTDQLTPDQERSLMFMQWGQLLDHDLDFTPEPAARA

| MPO kinact/Ki | SMILES |
| --- | --- |
| 7690 1/s per M | COc1cc(-c2cc(=O)[nH]c(=S)n2CCO)c(OC)cc1Cl [Example 206, 6-(4-chloro-2,5-dimethoxyphenyl)-1-(2-hydroxyethyl)-2-thioxo-2,3-dihydropyrimidin-4(1H)-one] |
| 2400 1/s per M | COc1ccc(-c2cc(=O)[nH]c(=S)n2Cc2ccn[nH]2)c(OC)c1 [Example 207, 6-(2,4-dimethoxyphenyl)-1-(1H-pyrazol-5-ylmethyl)-2-thioxo-2,3-dihydropyrimidin-4(1H)-one] |
| 4690 1/s per M | COc1ccc(-c2cc(=O)[nH]c(=S)n2C[C@@H]2CCCO2)c(OC)c1 [Example 213, 6-(2,4-dimethoxyphenyl)-1-[(2S)-tetrahydrofuran-2-ylmethyl]-2-thioxo-2,3-dihydropyrimidin-4(1H)-one] |
| 10700 1/s per M | COc1ccc(-c2cc(=O)[nH]c(=S)n2C[C@H]2CCCO2)c(OC)c1 [Example 214, 6-(2,4-dimethoxyphenyl)-1-[(2R)-tetrahydrofuran-2-ylmethyl]-2-thioxo-2,3-dihydropyrimidin-4(1H)-one] |
| 3260 1/s per M | CNC(=O)CCn1c(-c2ccc(OC)cc2OC)cc(=O)[nH]c1=S [Example 216, 3-[6-(2,4-dimethoxyphenyl)-4-oxo-2-thioxo-3,4-dihydropyrimidin-1(2H)-yl]-N-methylpropanamide] |
| 3940 1/s per M | COc1ccc(-c2cc(=O)[nH]c(=S)n2CC(C)C(N)=O)c(OC)c1 (stereo not drawn) [Example 217, 3-[6-(2,4-dimethoxyphenyl)-4-oxo-2-thioxo-3,4-dihydropyrimidin-1(2H)-yl]-2-methylpropanamide] |
| 1970 1/s per M | COc1ccc(-c2cc(=O)[nH]c(=S)n2CCC(C)(C)N)c(OC)c1 [Example 219, 1-(3-amino-3-methylbutyl)-6-(2,4-dimethoxyphenyl)-2-thioxo-2,3-dihydropyrimidin-4(1H)-one hydrochloride] |
| 9820 1/s per M | COc1ccc(-c2cc(=O)[nH]c(=S)n2CCOC(C)=O)c(OC)c1 [Example 222, 2-[6-(2,4-dimethoxyphenyl)-4-oxo-2-thioxo-3,4-dihydropyrimidin-1(2H)-yl]ethyl acetate] |
| 6280 1/s per M | COc1ccc(-c2cc(=O)[nH]c(=S)n2CCOC(C)C)c(OC)c1 [Example 226, 6-(2,4-dimethoxyphenyl)-1-(2-isopropoxyethyl)-2-thioxo-2,3-dihydropyrimidin-4(1H)-one] |
| 745 1/s per M | COc1ccc(-c2cc(=O)[nH]c(=S)n2CCCSC)c(OC)c1 [Example 227, 6-(2,4-dimethoxyphenyl)-1-[3-(methylthio)propyl]-2-thioxo-2,3-dihydropyrimidin-4(1H)-one] |
| 5900 1/s per M | COc1cc(-c2cc(=O)[nH]c(=S)n2CC(N)=O)c(OC)cc1Cl [Example 229, 2-[6-(4-chloro-2,5-dimethoxyphenyl)-4-oxo-2-thioxo-3,4-dihydropyrimidin-1(2H)-yl]acetamide] |
| 1740 1/s per M | COc1ccc(-c2cc(=O)[nH]c(=S)n2Cc2ccccn2)c(OC)c1 [Example 230, 6-(2,4-dimethoxyphenyl)-1-(pyridin-2-ylmethyl)-2-thioxo-2,3-dihydropyrimidin-4(1H)-one] |
| 2510 1/s per M | COCCn1c(-c2cc(OC)c(Cl)cc2OC)cc(=O)[nH]c1=S [Example 233, 6-(4-chloro-2,5-dimethoxyphenyl)-1-(2-methoxyethyl)-2-thioxo-2,3-dihydropyrimidin-4(1H)-one] |
| 3060 1/s per M | COc1ccc(-c2cc(=O)[nH]c(=S)n2Cc2ncccn2)c(OC)c1 [Example 234, 6-(2,4-dimethoxyphenyl)-1-(pyrimidin-2-ylmethyl)-2-thioxo-2,3-dihydropyrimidin-4(1H)-one] |
| 5740 1/s per M | COc1ccc(-c2cc(=O)[nH]c(=S)n2CC(=O)NC(=N)N)c(OC)c1 [Example 236, N-[amino(imino)methyl]-2-[6-(2,4-dimethoxyphenyl)-4-oxo-2-thioxo-3,4-dihydropyrimidin-1(2H)-yl]acetamide trifluoroacetate] |
| 8740 1/s per M | COc1ccc(-c2cc(=O)[nH]c(=S)n2CC2CNCCO2)c(OC)c1 (stereo not drawn) [Example 238, 6-(2,4-dimethoxyphenyl)-1-(morpholin-2-ylmethyl)-2-thioxo-2,3-dihydropyrimidin-4(1H)-one hydrochloride] |
| 1850 1/s per M | CCOC(=O)C(C)n1c(-c2ccc(OC)cc2OC)cc(=O)[nH]c1=S (stereo not drawn) [Example 239, ethyl 2-[6-(2,4-dimethoxyphenyl)-4-oxo-2-thioxo-3,4-dihydropyrimidin-1(2H)-yl]propanoate] |
| 7070 1/s per M | CCOC(=O)CCn1c(-c2ccc(OC)cc2OC)cc(=O)[nH]c1=S [Example 240, ethyl 3-[6-(2,4-dimethoxyphenyl)-4-oxo-2-thioxo-3,4-dihydropyrimidin-1(2H)-yl]propanoate] |

Second part, the molecule before the results:

| SMILES | MPO kinact/Ki |
| --- | --- |
| NC(=O)Cn1c(-c2ccccc2OC(F)(F)F)cc(=O)[nH]c1=S [Example 208, 2-{4-oxo-2-thioxo-6-[2-(trifluoromethoxy)phenyl]-3,4-dihydropyrimidin-1(2H)-yl}acetamide] | 3760 1/s per M |
| COc1ccc(-c2cc(=O)[nH]c(=S)n2Cc2ncn[nH]2)c(OC)c1 [Example 209, 6-(2,4-dimethoxyphenyl)-2-thioxo-1-(1H-1,2,4-triazol-5-ylmethyl)-2,3-dihydropyrimidin-4(1H)-one] | 4360 1/s per M |
| COCCn1c(-c2ccc(OC(F)(F)F)cc2)cc(=O)[nH]c1=S [Example 210, 1-(2-methoxyethyl)-2-thioxo-6-[4-(trifluoromethoxy)phenyl]-2,3-dihydropyrimidin-4(1H)-one] | 968 1/s per M |
| COc1ccc(-c2cc(=O)[nH]c(=S)n2CC2CCCN2)c(OC)c1 (stereo not drawn) [Example 211, 6-(2,4-dimethoxyphenyl)-1-(pyrrolidin-2-ylmethyl)-2-thioxo-2,3-dihydropyrimidin-4(1H)-one hydrochloride] | 6090 1/s per M |
| COc1ccc(-c2cc(=O)[nH]c(=S)n2CC2CCNC2)c(OC)c1 (stereo not drawn) [Example 212, 6-(2,4-dimethoxyphenyl)-1-(pyrrolidin-3-ylmethyl)-2-thioxo-2,3-dihydropyrimidin-4(1H)-one hydrochloride] | 7590 1/s per M |
| COc1ccc(-c2cc(=O)[nH]c(=S)n2CCNC(C)=O)c(OC)c1 [Example 215, N-{2-[6-(2,4-dimethoxyphenyl)-4-oxo-2-thioxo-3,4-dihydropyrimidin-1(2H)-yl]ethyl}acetamide] | 1920 1/s per M |
| COc1ccc(-c2cc(=O)[nH]c(=S)n2CCCCCN)c(OC)c1 [Example 218, 1-(5-aminopentyl)-6-(2,4-dimethoxyphenyl)-2-thioxo-2,3-dihydropyrimidin-4(1H)-one hydrochloride] | 14100 1/s per M |
| COc1ccc(-c2cc(=O)[nH]c(=S)n2CCCN(C)C)c(OC)c1 [Example 220, 6-(2,4-dimethoxyphenyl)-1-[3-(dimethylamino)propyl]-2-thioxo-2,3-dihydropyrimidin-4(1H)-one] | 2420 1/s per M |
| CCOC(=O)Cn1c(-c2ccc(OC)cc2OC)cc(=O)[nH]c1=S [Example 221, ethyl [6-(2,4-dimethoxyphenyl)-4-oxo-2-thioxo-3,4-dihydropyrimidin-1(2H)-yl]acetate] | 6230 1/s per M |
| COc1ccc(-c2cc(=O)[nH]c(=S)n2CCNC(N)=O)c(OC)c1 [Example 223, 1-{2-[6-(2,4-dimethoxyphenyl)-4-oxo-2-thioxo-3,4-dihydropyrimidin-1(2H)-yl]ethyl}urea] | 3000 1/s per M |
| COc1ccc(-c2cc(=O)[nH]c(=S)n2CC(C)(C)CO)c(OC)c1 [Example 224, 6-(2,4-dimethoxyphenyl)-1-(3-hydroxy-2,2-dimethylpropyl)-2-thioxo-2,3-dihydropyrimidin-4(1H)-one] | 3280 1/s per M |
| COc1ccc(-c2cc(=O)[nH]c(=S)n2CCCCCO)c(OC)c1 [Example 225, 6-(2,4-dimethoxyphenyl)-1-(5-hydroxypentyl)-2-thioxo-2,3-dihydropyrimidin-4(1H)-one] | 5490 1/s per M |
| COc1ccc(-c2cc(=O)[nH]c(=S)n2Cc2ccccc2)c(OC)c1 [Example 228, 1-benzyl-6-(2,4-dimethoxyphenyl)-2-thioxo-2,3-dihydropyrimidin-4(1H)-one] | 615 1/s per M |
| COc1ccc(-c2cc(=O)[nH]c(=S)n2Cc2cccnc2)c(OC)c1 [Example 231, 6-(2,4-dimethoxyphenyl)-1-(pyridin-3-ylmethyl)-2-thioxo-2,3-dihydropyrimidin-4(1H)-one] | 1910 1/s per M |
| COc1ccc(-c2cc(=O)[nH]c(=S)n2Cc2ccncc2)c(OC)c1 [Example 232, 6-(2,4-dimethoxyphenyl)-1-(pyridin-4-ylmethyl)-2-thioxo-2,3-dihydropyrimidin-4(1H)-one] | 4520 1/s per M |
| COc1ccc(-c2cc(=O)[nH]c(=S)n2CC2CCNCC2)c(OC)c1 [Example 235, 6-(2,4-dimethoxyphenyl)-1-(piperidin-4-ylmethyl)-2-thioxo-2,3-dihydropyrimidin-4(1H)-one hydrochloride] | 2690 1/s per M |
| COc1ccc(-c2cc(=O)[nH]c(=S)n2CCC(=O)N(C)C)c(OC)c1 [Example 237, 3-[6-(2,4-dimethoxyphenyl)-4-oxo-2-thioxo-3,4-dihydropyrimidin-1(2H)-yl]-N,N-dimethylpropanamide] | 2360 1/s per M |
| COc1ccc(-c2cc(=O)[nH]c(=S)n2CC(=O)NCCN)c(OC)c1 [Example 241, N-(2-aminoethyl)-2-(6-(2,4-dimethoxyphenyl)-4-oxo-2-thioxo-3,4-dihydropyrimidin-1(2H)-yl)acetamide hydrochloride] | 7060 1/s per M |
